According to US20230085307A1, “PYRIDAZINONE COMPOUND AND HERBICIDE” (NISSAN CHEMICAL CORPORATION, priority 2019, published 2023):

What was measured:
late watergrass [1] = assay: Test Example 2: herbicidal activity, application during weed generation under submerged conditions (Table 17, symbol A); format: in vivo, late watergrass (Echinochloa oryzicola); conditions: application during weed generation, submerged conditions
In short: (§1)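 3-wk visual-criteria score after one water-surface dose. Emulsion formulation, water-diluted to set rate; applied at 1–2 leaf stage; alluvial soil, 4 cm standing water; seeds co-sown; greenhouse 25–30° C.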

Japanese bulrush [2] = assay: Test Example 2: herbicidal activity, application during weed generation under submerged conditions (Table 17, symbol B); format: in vivo, Japanese bulrush (Schoenoplectus juncoides); conditions: application during weed generation, submerged conditions
In short: as §1

oval-leafed pondweed [3] = assay: Test Example 1: herbicidal activity, application before weed generation under submerged conditions (Table 16, symbol C); format: in vivo, oval-leafed pondweed (Monochoria vaginalis)
In short: (§2)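 Submerged Wagner pots (alluvial soil, 4 cm water) sown with weed seeds and planted with 2.5-leaf rice seedlings; emulsifiable concentrate diluted in water applied to water surface on sowing day. Held in greenhouse at 25-30 °C; injury scored 0-5 by herbicidal rate after three weeks.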

Japanese bulrush [4] = assay: Test Example 1: herbicidal activity, application before weed generation under submerged conditions (Table 16, symbol B); format: in vivo, Japanese bulrush (Schoenoplectus juncoides)
In short: as §2

oval-leafed pondweed [5] = assay: Test Example 2: herbicidal activity, application during weed generation under submerged conditions (Table 17, symbol C); format: in vivo, oval-leafed pondweed (Monochoria vaginalis); conditions: application during weed generation, submerged conditions
In short: as §1

late watergrass [6] = assay: Test Example 1: herbicidal activity, application before weed generation under submerged conditions (Table 16, symbol A); format: in vivo, late watergrass (Echinochloa oryzicola)
In short: as §2

barnyard grass [7] = assay: Test Example 3: herbicidal effect by foliage application, Wagner pot (Table 18, symbol H); format: in vivo, barnyard grass (Echinochloa crus-galli)
In short: (§3)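 Plants were sown in alluvial soil held under 0.1–0.5 cm standing water and grown 14 days in a greenhouse at 25–30 °C. An emulsifiable formulation, water-diluted to the set dose, was then sprayed onto the foliage, and effects were scored three weeks later using previously defined criteria.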

Chinese sprangletop = assay: Test Example 3: herbicidal effect by foliage application, Wagner pot (Table 18, symbol D); format: in vivo, chinese sprangletop (Leptochloa chinensis)
In short: as §3

rice flat sedge = assay: Test Example 3: herbicidal effect by foliage application, Wagner pot (Table 18, symbol E); format: in vivo, rice flat sedge (Cyperus iria)
In short: as §3

windgrass [8] = assay: Test Example 4: herbicidal effect by soil treatment (Table 19, symbol L); format: in vivo, windgrass (Apera spica-venti); conditions: amount of applied herbicide 320 g/ha
In short: (§4)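 Step 1: sow seeds in sterilized diluvial soil, cover ~1.5 cm. Step 2: spray diluted emulsion onto soil surface at predetermined rate. Step 3: greenhouse, 25–30° C, three weeks. Step 4: grade effect on each plant by earlier criteria.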

barnyard grass [9] = assay: Test Example 5: herbicidal effect by foliage application, plastic box (Table 20, symbol H); format: in vivo, barnyard grass (Echinochloa crus-galli); conditions: amount of applied herbicide 320 g/ha; foliage application after 14-day growth; evaluated three weeks after application
In short: (§5)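 Foliar spray test: emulsion formulation diluted in water to a set application rate, sprayed onto 14-day-old plants raised in diluvial soil at 25° C to 30° C under glass. Both herbicidal effect and crop effect rated visually three weeks later.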

lambsquarters [10] = assay: Test Example 5: herbicidal effect by foliage application, plastic box (Table 20, symbol O); format: in vivo, lambsquarters (Chenopodium album); conditions: amount of applied herbicide 320 g/ha; foliage application after 14-day growth; evaluated three weeks after application
In short: as §5

green foxtail [11] = assay: Test Example 5: herbicidal effect by foliage application, plastic box (Table 20, symbol G); format: in vivo, green foxtail (Setaria viridis); conditions: amount of applied herbicide 320 g/ha; foliage application after 14-day growth; evaluated three weeks after application
In short: as §5

southern crabgrass [12] = assay: Test Example 5: herbicidal effect by foliage application, plastic box (Table 20, symbol F); format: in vivo, southern crabgrass (Digitaria ciliaris); conditions: amount of applied herbicide 320 g/ha; foliage application after 14-day growth; evaluated three weeks after application
In short: as §5

blackgrass [13] = assay: Test Example 5: herbicidal effect by foliage application, plastic box (Table 20, symbol J); format: in vivo, blackgrass (Alopecurus myosuroides); conditions: amount of applied herbicide 320 g/ha; foliage application after 14-day growth; evaluated three weeks after application
In short: as §5

persian speedwell [14] = assay: Test Example 4: herbicidal effect by soil treatment (Table 19, symbol R); format: in vivo, Persian speedwell (Veronica persica); conditions: amount of applied herbicide 320 g/ha
In short: as §4

southern crabgrass [15] = assay: Test Example 4: herbicidal effect by soil treatment (Table 19, symbol F); format: in vivo, southern crabgrass (Digitaria ciliaris); conditions: amount of applied herbicide 320 g/ha
In short: as §4

blackgrass [16] = assay: Test Example 4: herbicidal effect by soil treatment (Table 19, symbol J); format: in vivo, blackgrass (Alopecurus myosuroides); conditions: amount of applied herbicide 320 g/ha
In short: as §4

green foxtail [17] = assay: Test Example 4: herbicidal effect by soil treatment (Table 19, symbol G); format: in vivo, green foxtail (Setaria viridis); conditions: amount of applied herbicide 320 g/ha
In short: as §4

velvetleaf [18] = assay: Test Example 4: herbicidal effect by soil treatment (Table 19, symbol M); format: in vivo, velvetleaf (Abutilon theophrasti); conditions: amount of applied herbicide 320 g/ha
In short: as §4

velvetleaf [19] = assay: Test Example 5: herbicidal effect by foliage application, plastic box (Table 20, symbol M); format: in vivo, velvetleaf (Abutilon theophrasti); conditions: amount of applied herbicide 320 g/ha; foliage application after 14-day growth; evaluated three weeks after application
In short: as §5

redroot pigweed [20] = assay: Test Example 4: herbicidal effect by soil treatment (Table 19, symbol N); format: in vivo, redroot pigweed (Amaranthus retroflexus); conditions: amount of applied herbicide 320 g/ha
In short: as §4

lambsquarters [21] = assay: Test Example 4: herbicidal effect by soil treatment (Table 19, symbol O); format: in vivo, lambsquarters (Chenopodium album); conditions: amount of applied herbicide 320 g/ha
In short: as §4

persian speedwell [22] = assay: Test Example 5: herbicidal effect by foliage application, plastic box (Table 20, symbol R); format: in vivo, Persian speedwell (Veronica persica); conditions: amount of applied herbicide 320 g/ha; foliage application after 14-day growth; evaluated three weeks after application
In short: as §5

wild oat [23] = assay: Test Example 4: herbicidal effect by soil treatment (Table 19, symbol I); format: in vivo, wild oat (Avena fatua); conditions: amount of applied herbicide 320 g/ha
In short: as §4

redroot pigweed [24] = assay: Test Example 5: herbicidal effect by foliage application, plastic box (Table 20, symbol N); format: in vivo, redroot pigweed (Amaranthus retroflexus); conditions: amount of applied herbicide 320 g/ha; foliage application after 14-day growth; evaluated three weeks after application
In short: as §5

chickweed [25] = assay: Test Example 4: herbicidal effect by soil treatment (Table 19, symbol P); format: in vivo, common chickweed (Stellaria media); conditions: amount of applied herbicide 320 g/ha
In short: as §4

Italian ryegrass [26] = assay: Test Example 5: herbicidal effect by foliage application, plastic box (Table 20, symbol K); format: in vivo, Italian ryegrass (Lolium multiflorum); conditions: amount of applied herbicide 320 g/ha; foliage application after 14-day growth; evaluated three weeks after application
In short: as §5

windgrass [27] = assay: Test Example 5: herbicidal effect by foliage application, plastic box (Table 20, symbol L); format: in vivo, windgrass (Apera spica-venti); conditions: amount of applied herbicide 320 g/ha; foliage application after 14-day growth; evaluated three weeks after application
In short: as §5

Italian ryegrass [28] = assay: Test Example 4: herbicidal effect by soil treatment (Table 19, symbol K); format: in vivo, Italian ryegrass (Lolium multiflorum); conditions: amount of applied herbicide 320 g/ha
In short: as §4

barnyard grass [29] = assay: Test Example 4: herbicidal effect by soil treatment (Table 19, symbol H); format: in vivo, barnyard grass (Echinochloa crus-galli); conditions: amount of applied herbicide 320 g/ha
In short: as §4

chickweed [30] = assay: Test Example 5: herbicidal effect by foliage application, plastic box (Table 20, symbol P); format: in vivo, common chickweed (Stellaria media); conditions: amount of applied herbicide 320 g/ha; foliage application after 14-day growth; evaluated three weeks after application
In short: as §5

wild oat [31] = assay: Test Example 5: herbicidal effect by foliage application, plastic box (Table 20, symbol I); format: in vivo, wild oat (Avena fatua); conditions: amount of applied herbicide 320 g/ha; foliage application after 14-day growth; evaluated three weeks after application
In short: as §5

[32] = amount of applied herbicide 320 g/ha

Cc1nn(C)c(=O)c(-c2c(-c3ccccc3)sc3ccc(-c4ccccc4)cc23)c1O [2-166]
herbicidal effect rating, A: late watergrass (late watergrass [1]; AAH 80 g/ha): 0 (Herbicidal rate of 5% or less (almost no effect))
herbicidal effect rating, B: Japanese bulrush (Japanese bulrush [2]; AAH 80 g/ha): 3 (Herbicidal rate of 40% or more and less than 70%)
Herbicidal effect on C: oval-leafed pondweed (grade 0-5) (oval-leafed pondweed [3]; 80 g/ha applied herbicide): 0 (Herbicidal rate of 5% or less (almost no effect))
Herbicidal effect on B: Japanese bulrush (grade 0-5) (Japanese bulrush [4]; 80 g/ha applied herbicide): 0 (Herbicidal rate of 5% or less (almost no effect))
herbicidal effect rating, C: oval-leafed pondweed (oval-leafed pondweed [5]; AAH 80 g/ha): 0 (Herbicidal rate of 5% or less (almost no effect))
Herbicidal effect on A: late watergrass (grade 0-5) (late watergrass [6]; 80 g/ha applied herbicide): 2 (Herbicidal rate of 20% or more and less than 40%)

Cc1nn(C)c(=O)c(-c2c(-c3ccc([S+]([O-])CC(F)F)cc3)sc3ccc(F)cc23)c1O (stereo not drawn) [2-264]
herbicidal effect rating, A: late watergrass (late watergrass [1]; AAH 320 g/ha): 3 (Herbicidal rate of 40% or more and less than 70%)
herbicidal effect on H: barnyard grass (barnyard grass [7]; [32]): 5 (Herbicidal rate of 90% or more (almost completely withered))
herbicidal effect rating, B: Japanese bulrush (Japanese bulrush [2]; AAH 320 g/ha): 3 (Herbicidal rate of 40% or more and less than 70%)
Herbicidal effect on C: oval-leafed pondweed (grade 0-5) (oval-leafed pondweed [3]; 320 g/ha applied herbicide): 3 (Herbicidal rate of 40% or more and less than 70%)
Herbicidal effect on B: Japanese bulrush (grade 0-5) (Japanese bulrush [4]; 320 g/ha applied herbicide): 4 (Herbicidal rate of 70% or more and less than 90%)
herbicidal effect rating, C: oval-leafed pondweed (oval-leafed pondweed [5]; AAH 320 g/ha): 3 (Herbicidal rate of 40% or more and less than 70%)
herbicidal effect on D: Chinese sprangletop (Chinese sprangletop; [32]): 3 (Herbicidal rate of 40% or more and less than 70%)
Herbicidal effect on A: late watergrass (grade 0-5) (late watergrass [6]; 320 g/ha applied herbicide): 4 (Herbicidal rate of 70% or more and less than 90%)
herbicidal effect on E: rice flat sedge (rice flat sedge; [32]): 5 (Herbicidal rate of 90% or more (almost completely withered))

Cc1nn(C)c(=O)c(-c2c(-c3ccc(F)cc3)sc3cc(Cl)c(Cl)cc23)c1O [5-039]
herbicidal effect rating, A: late watergrass (late watergrass [1]; AAH 320 g/ha): 3 (Herbicidal rate of 40% or more and less than 70%)
L: windgrass, herbicidal effect grade (windgrass [8]): 0 (Herbicidal rate of 5% or less (almost no effect))
Herbicidal effect by foliage application, H: barnyard grass (barnyard grass [9]): 4 (Herbicidal rate of 70% or more and less than 90%)
herbicidal effect on barnyard grass (H) (barnyard grass [7]; 320 g/ha): 4 (Herbicidal rate of 70% or more and less than 90%)
Herbicidal effect by foliage application, O: lambsquarters (lambsquarters [10]): 5 (Herbicidal rate of 90% or more (almost completely withered))
Herbicidal effect by foliage application, G: green foxtail (green foxtail [11]): 5 (Herbicidal rate of 90% or more (almost completely withered))
Herbicidal effect by foliage application, F: southern crabgrass (southern crabgrass [12]): 4 (Herbicidal rate of 70% or more and less than 90%)
Herbicidal effect by foliage application, J: blackgrass (blackgrass [13]): 4 (Herbicidal rate of 70% or more and less than 90%)
herbicidal effect rating, B: Japanese bulrush (Japanese bulrush [2]; AAH 320 g/ha): 0 (Herbicidal rate of 5% or less (almost no effect))
R: persian speedwell, herbicidal effect grade (persian speedwell [14]): 0 (Herbicidal rate of 5% or less (almost no effect))
F: southern crabgrass, herbicidal effect grade (southern crabgrass [15]): 0 (Herbicidal rate of 5% or less (almost no effect))
J: blackgrass, herbicidal effect grade (blackgrass [16]): 0 (Herbicidal rate of 5% or less (almost no effect))
G: green foxtail, herbicidal effect grade (green foxtail [17]): 0 (Herbicidal rate of 5% or less (almost no effect))
M: velvetleaf, herbicidal effect grade (velvetleaf [18]): 0 (Herbicidal rate of 5% or less (almost no effect))
Herbicidal effect by foliage application, M: velvetleaf (velvetleaf [19]): 3 (Herbicidal rate of 40% or more and less than 70%)
N: redroot pigweed, herbicidal effect grade (redroot pigweed [20]): 3 (Herbicidal rate of 40% or more and less than 70%)
O: lambsquarters, herbicidal effect grade (lambsquarters [21]): 1 (Herbicidal rate of 5% or more and less than 20%)
Herbicidal effect by foliage application, R: persian speedwell (persian speedwell [22]): 4 (Herbicidal rate of 70% or more and less than 90%)
I: wild oat, herbicidal effect grade (wild oat [23]): 0 (Herbicidal rate of 5% or less (almost no effect))
Herbicidal effect by foliage application, N: redroot pigweed (redroot pigweed [24]): 5 (Herbicidal rate of 90% or more (almost completely withered))
P: chickweed, herbicidal effect grade (chickweed [25]): 0 (Herbicidal rate of 5% or less (almost no effect))
herbicidal effect rating, C: oval-leafed pondweed (oval-leafed pondweed [5]; AAH 320 g/ha): 0 (Herbicidal rate of 5% or less (almost no effect))
Herbicidal effect by foliage application, K: Italian ryegrass (Italian ryegrass [26]): 4 (Herbicidal rate of 70% or more and less than 90%)
Herbicidal effect by foliage application, L: windgrass (windgrass [27]): 5 (Herbicidal rate of 90% or more (almost completely withered))
K: Italian ryegrass, herbicidal effect grade (Italian ryegrass [28]): 0 (Herbicidal rate of 5% or less (almost no effect))
H: barnyard grass, herbicidal effect grade (barnyard grass [29]): 0 (Herbicidal rate of 5% or less (almost no effect))
herbicidal effect on Chinese sprangletop (D) (Chinese sprangletop; 320 g/ha): 3 (Herbicidal rate of 40% or more and less than 70%)
Herbicidal effect by foliage application, P: chickweed (chickweed [30]): 5 (Herbicidal rate of 90% or more (almost completely withered))
herbicidal effect on rice flat sedge (E) (rice flat sedge; 320 g/ha): 5 (Herbicidal rate of 90% or more (almost completely withered))
Herbicidal effect by foliage application, I: wild oat (wild oat [31]): 5 (Herbicidal rate of 90% or more (almost completely withered))
